In patent publication EP3057951B1, “METHYLENE LINKED QUINOLINYL MODULATORS OF ROR-GAMMA-T” (Janssen Pharmaceutica NV, priority 2013, dated 2015):
Where a name gives a salt, the structure may show the parent alone.

Biological target: T1, wild type human RORγt ligand binding domain (RORyt LBD) (Homo sapiens, UniProt P51449)
T1 construct: His-tag (N); TurboTEV protease cleavage site (ENLYFQG) (N); made in house; host or cells: E. coli (pHIS1, modified pET vector)
T1 sequence (P51449 258-518): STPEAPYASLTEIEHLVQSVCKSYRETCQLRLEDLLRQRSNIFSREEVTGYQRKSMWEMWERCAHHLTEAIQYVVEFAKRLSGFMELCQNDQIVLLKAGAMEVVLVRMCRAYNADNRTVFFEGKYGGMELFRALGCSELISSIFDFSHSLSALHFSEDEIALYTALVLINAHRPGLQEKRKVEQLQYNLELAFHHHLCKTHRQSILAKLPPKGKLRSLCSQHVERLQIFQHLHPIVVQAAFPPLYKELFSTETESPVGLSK
Test: RORγt ThermoFluor assay (thermal shift, binding affinity KD)

| Structure (SMILES) | Kd |
| --- | --- |
| COc1nc2ccc(C(O)(C3CN(C(C)=O)C3)C3CN(C(C)=O)C3)cc2c(Cl)c1Cc1ccc(C(F)(F)F)cc1 [Example 3, 1,1'-(3,3'-((4-Chloro-2-methoxy-3-(4-(trifluoromethyl)benzyl)quinolin-6-yl)(hydroxy)methylene)bis(azetidine-3,1-diyl))diethanone] | 46 nM |
| CCc1nc2ccc(C(O)(c3cnc(C)n3C)c3cnc(C)n3C)cc2c(Cl)c1Cc1ccc(C(F)(F)F)cc1 [Example 4, (4-Chloro-2-ethyl-3-(4-(trifluoromethyl)benzyl)quinolin-6-yl)bis(1,2-dimethyl-1H-imidazol-5-yl)methanole•TFA] | 0.006 nM |
| COc1nc2ccc(C(O)(c3cnc(C)n3C)c3cnc(C)n3C)cc2c(Cl)c1Cc1cccc(C(F)(F)F)c1 [Example 5, (4-Chloro-2-methoxy-3-(3-(trifluoromethyl)benzyl)quinolin-6-yl)bis(1,2-dimethyt-1H-imidazol-5-yt)methanol•TFA] | 0.041 nM |
| COc1nc2ccc(C(O)(c3cnc(C)n3C)c3cnc(C)n3C)cc2c(Cl)c1Cc1ccccc1C(F)(F)F [Example 6, (4-Chloro-2-methoxy-3-(2-(trifluoromethyl)benzyl)quinolin-6-yl)bis(1,2-dimethyl-1H-imidazol-5-yl)methanol•TFA] | 0.046 nM |
| COc1nc2ccc(C(O)(c3cnc(C)n3C)c3cnc(C)n3C)cc2c(Cl)c1Cc1ccc(C(F)(F)F)s1 [Example 7, (4-Chloro-2-methoxy-3-((5-(trifluoromethyl)thiophen-2-yl)methyl)quinolin-6-yl)bis(1,2-dimethyl-1H-imidazol-5-yl)methanol•TFA] | 0.032 nM |
| CCc1nc2ccc(C(O)(c3cnc(C)n3C)c3cnc(C)n3C)cc2c(C#N)c1Cc1ccc(C(F)(F)F)cc1 [Example 8, 6-(bis(1,2-Dimethyl-1H-imidazol-5-yl)(hydroxy)methyl)-2-ethyl-3-(4-(trifluoromethyl)benzyl)quinoline-4-carbonitrile.TFA] | 0.009 nM |
| COc1nc2ccc(C(O)(c3cnc(C)n3C)c3cnc(C)n3C)cc2c(C#N)c1Cc1cccc(C(F)(F)F)c1 [Example 9, 6-(bis(1,2-Dimethyl-1H-imidazol-5-yl)(hydroxy)methyl)-2-methoxy-3-(3-(trifluoromethyl)benzyl)quinoline-4-carbonitrile•TFA] | 0.055 nM |
| COc1nc2ccc(C(O)(c3cnc(C)n3C)c3cnc(C)n3C)cc2c(C#N)c1Cc1ccccc1C(F)(F)F [Example 10, 6-(bis(1,2-Dimethyl-1H-imidazol-5-yl)(hydroxy)methyl)-2-methoxy-3-(2-(trifluoromethyl)benzyl)quinoline-4-carbonitrile•TFA] | 0.17 nM |
| COc1nc2ccc(C(O)(c3cnc(C)n3C)c3cnc(C)n3C)cc2c(C#N)c1Cc1ccc(C(F)(F)F)cc1 [Example 11, 6-(bis(1,2-Dimethyl-1H-imidazol-5-yl)(hydroxy)methyl)-2-methoxy-3-(4-(trifluoromethyl)benzyl)quinoline-4-carbonitrile] | 0.013 nM |
| Cc1nc2ccc(C(O)(c3cnnn3C)c3cnc(C)n3C)cc2c(Cl)c1Cc1ccc(C(F)(F)F)cc1 (stereo not drawn) [Example 29a, (4-Chloro-2-methyl-3-(4-(trifluoromethyl)benzyl)quinolin-6-yl)(1,2-dimethyl-1H-imidazol-5-yl)(1-methyl-1H-1,2,3-triazol-5-yl)methanol] | 0.06 nM |
| Cc1nc2ccc(C(O)(c3ccnc(C(F)(F)F)c3)c3cncn3C)cc2c(Cl)c1Cc1ccc(C(F)(F)F)cc1 (stereo not drawn) [Example 30a, (4-Chloro-2-methyl-3-(4-(trifluoromethyl)benzyl)quinofin-6-yl)(1-methyl-1H-imidazol-5-yl)(2-(trifluoromethyl)pyridin4-yl)methanol] | 0.28 nM |
| Cc1nc2ccc(C(O)(c3cnnn3C)C3CN(C(=O)OC(C)(C)C)C3)cc2c(Cl)c1Cc1ccc(C(F)(F)F)cc1 (stereo not drawn) [Example 31, tert-Butyl 3-((4-chloro-2-methyl-3-(4-(trifluoromethyl)benzyl)quinolin-6-yl)(hydroxy)(1-methyl-1H-1,2,3-triazol-5-yl)methyl)azetidine-1-carboxylate] | 0.79 nM |
| CC(=O)N1CC(C(O)(c2ccc3nc(C)c(Cc4ccc(C(F)(F)F)cc4)c(Cl)c3c2)c2cnnn2C)C1 (stereo not drawn) [Example 32a, 1-(3-((4-Chloro-2-methyl-3-(4-(trifluoromethyl)benzyl)quinolin-6-yl)(hydroxy)(1-methyl-1H-1,2,3-triazol-5-yl)methyl)azetidin-1-yl)ethanone] | 1.1 nM |
| CCc1nc2ccc(C(O)(c3cnnn3C)C3CCOCC3)cc2c(Cl)c1Cc1ccc(C(F)(F)F)cc1 (stereo not drawn) [Example 33a, (4-Chloro-2-ethyl-3-(4-(trifluoromethyl)benzyl)quinolin-6-yl)(1-methyl-1H-1,2,3-triazol-5-yl)(tetrahydro-2H-pyran-4-yl)methanol] | 0.05 nM |
| CCc1nc2ccc(C(O)(c3cnc(C)n3C)C3CCOCC3)cc2c(Cl)c1Cc1ccc(C(F)(F)F)cc1 (stereo not drawn) [Example 34a, (4-Chloro-2-ethyl-3-(4-(trifluoromethyl)benzyl)quinolin-6-yl)(1,2-dimethyl-1H-imidazol-5-yl)(tetrahydro-2H-pyran-4-yl)methanol] | 0.03 nM |

Second part, the molecule after the results:

| Kd | Structure (SMILES) |
| --- | --- |
| 6.8 nM | COc1nc2ccc(C(O)(c3ccc(C(F)(F)F)nc3)c3cnnn3C)cc2c(Cl)c1Cc1ccc(C(F)(F)F)cc1 (single isomer, unassigned) [Example 75b, (4-Chloro-2-methoxy-3-(4-(trifluoromethyl)benzyl)quinolin-6-yl)(1-methyl-1H-1,2,3-triazol-5-yl)(6-(trifluoromethyl)pyridin-3-yl)methanol] |
| 2.5 nM | COc1nc2ccc(C(O)(c3ccc(C(F)(F)F)nc3)c3cnnn3C)cc2c(Cl)c1Cc1ccc(C(F)(F)F)cc1 (single isomer, unassigned) [Example 75c, (4-Chloro-2-methoxy-3-(4-(trifluoromethyl)benzyl)quinolin-6-yl)(1-methyl-1H-1,2,3-triazol-5-yl)(6-(trifluoromethyl)pyridin-3-yl)methanol] |
| 27 nM | COc1nc2ccc(C(O)(c3cnc(C)n3C)C3CCOCC3)cc2c(Cl)c1Cc1ccc(C(F)(F)F)cc1 (single isomer, unassigned) [Example 86b, (4-Chloro-2-methoxy-3-(4-(trifluoromethyl)benzyl)quinolin-6-yl)(1,2-dimethyl-1H-imidazol-5-yl)(tetrahydro-2H-pyran-4-yl)methanol] |
| 0.06 nM | COc1nc2ccc(C(O)(c3cnc(C)n3C)C3CCOCC3)cc2c(Cl)c1Cc1ccc(C(F)(F)F)cc1 (single isomer, unassigned) [Example 86c, (4-Chloro-2-methoxy-3-(4-(trifluoromethyl)benzyl)quinolin-6-yl)(1,2-dimethyl-1H-imidazol-5-yl)(tetrahydro-2H-pyran-4-yl)methanol] |
| 580 nM | COc1nc2ccc(C(O)(c3cnnn3C)C3CN(C)C3)cc2c(Cl)c1Cc1ccc(C(F)(F)F)cc1 (single isomer, unassigned) [Example 90b, (4-Chloro-2-methoxy-3-(4-(trifluoromethyl)benzyl)quinolin-6-yl)(1-methyl-1H-1,2,3-triazol-5-yl)(1-methylazetidin-3-yl)methanol] |
| 3.4 nM | COc1nc2ccc(C(O)(c3cnnn3C)C3CN(C)C3)cc2c(Cl)c1Cc1ccc(C(F)(F)F)cc1 (single isomer, unassigned) [Example 90c, (4-Chloro-2-methoxy-3-(4-(trifluoromethyl)benzyl)quinolin-6-yl)(1-methyl-1H-1,2,3-triazol-5-yl)(1-methylazetidin-3-yl)methanol] |
